From the supplement of paper PMC10307832

How the values were obtained:
Experiment in all cases: relative viability (nuclei count vs DMSO), 5 days (fraction); higher = more cells survive
JZL-184 + Bortezomib = compound: C1CN(CCC1C(C2=CC3=C(C=C2)OCO3)(C4=CC5=C(C=C4)OCO5)O)C(=O)OC6=CC=C(C=C6)[N+](=O)[O-] [JZL-184] + CC(C)C[C@H](NC(=O)[C@H](Cc1ccccc1)NC(=O)c1cnccn1)B(O)O [Bortezomib] (partner 0.002 µM)
Summary of the method: (§1)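 Lung cancer cell lines in 1536-well plates were dosed by pin tool the day after seeding, either with one drug alone or with a fixed anchor-drug dose plus five library-drug doses (not always all listed) in √10 steps. After 5 days, cells were fixed and their nuclei stained in one step (final 0.05% Triton X-100, 1% formaldehyde, 1 ug/ml Hoechst), then counted on 4× images. Relative viability is the nuclei count in treated wells divided by that in vehicle wells. Values are medians of duplicate plates.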

JZL-184 + Navitoclax = compound: C1CN(CCC1C(C2=CC3=C(C=C2)OCO3)(C4=CC5=C(C=C4)OCO5)O)C(=O)OC6=CC=C(C=C6)[N+](=O)[O-] [JZL-184] + CC1(C)CCC(c2ccc(Cl)cc2)=C(CN2CCN(c3ccc(C(=O)NS(=O)(=O)c4ccc(N[C@H](CCN5CCOCC5)CSc5ccccc5)c(S(=O)(=O)C(F)(F)F)c4)cc3)CC2)C1 [Navitoclax] (partner 0.5 µM)
Summary of the method: as §1

JZL-184 + OSI-027 = compound: C1CN(CCC1C(C2=CC3=C(C=C2)OCO3)(C4=CC5=C(C=C4)OCO5)O)C(=O)OC6=CC=C(C=C6)[N+](=O)[O-] [JZL-184] + COc1cccc2cc(-c3nc([C@H]4CC[C@H](C(=O)O)CC4)n4ncnc(N)c34)[nH]c12 [OSI-027] (partner 0.5 µM)
Summary of the method: as §1

JZL-184 + Lapatinib = compound: C1CN(CCC1C(C2=CC3=C(C=C2)OCO3)(C4=CC5=C(C=C4)OCO5)O)C(=O)OC6=CC=C(C=C6)[N+](=O)[O-] [JZL-184] + CS(=O)(=O)CCNCc1ccc(-c2ccc3ncnc(Nc4ccc(OCc5cccc(F)c5)c(Cl)c4)c3c2)o1 [Lapatinib] (partner 2 µM)
Summary of the method: as §1

JZL-184 + Pictilisib = compound: C1CN(CCC1C(C2=CC3=C(C=C2)OCO3)(C4=CC5=C(C=C4)OCO5)O)C(=O)OC6=CC=C(C=C6)[N+](=O)[O-] [JZL-184] + CS(=O)(=O)N1CCN(Cc2cc3nc(-c4cccc5[nH]ncc45)nc(N4CCOCC4)c3s2)CC1 [Pictilisib] (partner 1 µM)
Summary of the method: as §1

Row | Cell Line | relative viability (JZL-184 + Bortezomib; first compound 0.04 µM) | relative viability (JZL-184 + Bortezomib; first compound 0.4 µM) | relative viability (JZL-184 + Bortezomib; first compound 1.265 µM) | relative viability (JZL-184 + Bortezomib; first compound 4 µM) | relative viability (JZL-184 + Navitoclax; first compound 0.04 µM) | relative viability (JZL-184 + Navitoclax; first compound 0.4 µM) | relative viability (JZL-184 + Navitoclax; first compound 1.265 µM) | relative viability (JZL-184 + Navitoclax; first compound 4 µM) | relative viability (JZL-184 + OSI-027; first compound 0.04 µM) | relative viability (JZL-184 + OSI-027; first compound 0.4 µM) | relative viability (JZL-184 + OSI-027; first compound 1.265 µM) | relative viability (JZL-184 + OSI-027; first compound 4 µM) | relative viability (JZL-184 + Lapatinib; first compound 0.04 µM) | relative viability (JZL-184 + Lapatinib; first compound 0.4 µM) | relative viability (JZL-184 + Lapatinib; first compound 1.265 µM) | relative viability (JZL-184 + Lapatinib; first compound 4 µM) | relative viability (JZL-184 + Pictilisib; first compound 0.04 µM) | relative viability (JZL-184 + Pictilisib; first compound 0.4 µM) | relative viability (JZL-184 + Pictilisib; first compound 1.265 µM) | relative viability (JZL-184 + Pictilisib; first compound 4 µM)
1 | RERF-LC-KJ | 1.15 | 0.96 | 1.11 | 1.04 | 1.01 | 1.1 | 0.951 | 0.825 | 0.58 | 0.625 | 0.562 | 0.478 | 0.961 | 0.835 | 0.874 | 0.772 | 0.508 | 0.513 | 0.676 | 0.47
2 | HCC-44 | 0.8 | 0.878 | 0.836 | 0.856 | 1.02 | 0.953 | 0.954 | 0.876 | 0.628 | 0.366 | 0.689 | 0.471 | 1.15 | 0.93 | 1.08 | 1.07 | 0.592 | 0.549 | 0.622 | 0.528
3 | NCI-H1915 | 0.992 | 0.93 | 1.03 | 1.03 | 0.819 | 0.749 | 0.794 | 0.722 | 0.659 | 0.604 | 0.698 | 0.585 | 1.15 | 0.973 | 0.998 | 0.935 | 1.05 | 0.914 | 1.1 | 0.918
4 | PC-14 | 0.808 | 0.972 | 0.781 | 0.77 | 0.998 | 1 | 0.964 | 0.992 | 1.07 | 0.831 | 0.853 | 0.72 | 0.39 | 0.316 | 0.325 | 0.327 | 0.867 | 0.619 | 0.722 | 0.589
5 | SK-LU-1 | 0.929 | 1.06 | 1.29 | 1.16 | 1.36 | 0.866 | 0.915 | 0.823 | 0.405 | 0.341 | 0.423 | 0.358 | 1.21 | 0.814 | 0.962 | 0.822 | 0.631 | 0.517 | 0.7 | 0.611
6 | NCI-H1437 | 0.594 | 0.512 | 0.479 | 0.373 | 1.1 | 0.959 | 0.965 | 1.06 | 0.88 | 0.849 | 0.849 | 0.866 | 0.984 | 0.717 | 0.773 | 0.759 | 0.466 | 0.408 | 0.366 | 0.468
7 | NCI-H1734 | 1.03 | 0.842 | 1.02 | 0.884 | 0.991 | 0.799 | 0.901 | 0.843 | 0.621 | 0.615 | 0.718 | 0.594 | 1.22 | 0.959 | 1.15 | 1.04 | 0.519 | 0.471 | 0.505 | 0.482
8 | HCC-15 | 1.11 | 0.987 | 1.03 | 0.995 | 0.754 | 0.704 | 0.759 | 0.703 | 0.727 | 0.635 | 0.742 | 0.677 | 0.988 | 0.813 | 0.943 | 0.778 | 0.957 | 0.664 | 0.814 | 0.697
9 | HCC-366 | 1.26 | 1.01 | 1.09 | 0.978 | 1.21 | 1.03 | 1.07 | 1.06 | 1.04 | 0.868 | 0.97 | 0.825 | 1.19 | 0.959 | 1.13 | 1.05 | 0.158 | 0.179 | 0.155 | 0.113
10 | NCI-H2347 | 1.12 | 0.717 | 1.05 | 0.906 | 0.68 | 0.706 | 0.82 | 0.903 | 0.396 | 0.393 | 0.419 | 0.477 | 1.1 | 0.884 | 0.953 | 0.815 | 0.768 | 0.654 | 0.61 | 0.688
11 | LXF-289 | 1.01 | 0.953 | 1.04 | 0.933 | 0.973 | 0.832 | 0.91 | 0.928 | 0.819 | 0.776 | 0.927 | 0.734 | 0.92 | 0.866 | 0.924 | 0.852 | 0.865 | 0.71 | 0.842 | 0.779
12 | BEN | 0.912 | 0.711 | 0.942 | 0.799 | 0.0556 | 0.0635 | 0.0659 | 0.0756 | 0.289 | 0.254 | 0.324 | 0.296 | 0.865 | 0.671 | 0.939 | 0.819 | 0.661 | 0.515 | 0.637 | 0.54
13 | NCI-H2023 | 1.03 | 0.947 | 1.01 | 0.865 | 1.07 | 0.942 | 1.02 | 0.963 | 0.407 | 0.381 | 0.405 | 0.317 | 1.14 | 0.853 | 0.964 | 0.802 | 0.27 | 0.22 | 0.301 | 0.241
